For series [1], the system named is TNFα release from LPS stimulated THP-1 (hCE-1 +ve) cells. Put plainly: LPS-stimulation of THP-1 cells (TNF-α release). The format is cell-based, human. The note with it: for IC50: Homo sapiens, THP-1. The procedure, abridged:
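THP-1 cells at 4×10^4 per well were pre-incubated for 16 h, then exposed to inhibitor for 2 h before stimulation with 1 μg/ml LPS for 6 h at 37 °C. TNF-α in cell-free supernatants was measured by sandwich ELISA.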

The subject of series [2] is U937 (hCE-1 +ve) cells. The series is described as follows: Proliferation assay, U937 cells. The note with it: for IC50: Homo sapiens, U-937, U937, 72 hours, WST-1, read-out: Proliferation assay: Inhibition of U937 (hCE-1 +ve) cell proliferation IC50. The class given is cell-based, human. The protocol:
(§1) Cells are seeded in 96 well tissue culture plates (1 well=30 mm^2) at an appropriate density (2000 cells per well for U937 cells, 2250 cells per well for HUT-78 and MINO cells) in 50 μl of culture medium (see below for details). 24 Hours later 50 μl of the compound prepared in the same medium is added as 3 fold dilutions to give final concentrations in the range 5-10,000 nM (n=6 for each concentration). The plates are then incubated at 37° C., 5% CO2 for 72 hours. Cell proliferation is assessed using WST-1 (a metabolic indicator dye, Roche Cat no. 11644807001) according to the manufacturer's instructions. The results are calculated as a percentage of vehicle response and plotted as a dose-response curve. IC50 values represent the concentration of compound that inhibits the vehicle response by 50%.
(§2) Culture medium for U937 and RUT-78 cells is RPMI1640 (Sigma R0883) with 10% heat inactivated fetal calf serum (Hyclone SH30071, Perbio), plus 2 mM glutamine (Sigma G7513) and 50 U/ml penicillin and streptomycin sulphate (Sigma P0781). MINO cell culture medium is as for U937 and HUT-78 but supplemented with sodium pyruvate (Sigma S8636) to a final concentration of 1 mM.
A general note: Tetrazolium assays rely on reduction of a dye to a coloured formazan, in cell work by metabolically active cells.

In series [3] the test system is Hut78 (hCE-1 -ve) cells. The series is described as follows: Proliferation assay, Hut78 cells. The class given is cell-based, human. The note with it: for IC50: Homo sapiens, Hut78, 72 hours, WST-1, read-out: Proliferation assay: Inhibition of Hut78 (hCE-1 -ve) cell proliferation IC50. The protocol: as §1, §2
In series [4] the target is T1, human recombinant his-tagged HSP90α (Homo sapiens, UniProt P07900).
T1 construct: purchased Prospec Technogene #HSP90
Put plainly: HSP90 enzyme assay (HTRF, competition with biotinylated Geldanamycin). The class given is binding. In short, it runs like this: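 HTRF competition: compounds (5000 to 0.3 nM, 0.5% DMSO) displace 40 nM biotinylated geldanamycin from 40 nM his-tagged HSP90α. Binding was read via Eu-cryptate anti-his/streptavidin-XL FRET after 20 h at room temperature in Hepes pH 7.3 buffer. IC50 was fitted against controls.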
In general terms: Time-resolved FRET reads energy transfer from a long-lived donor to a nearby acceptor.

Series [5] concerns intact U937 cells. The series is described as follows: Carboxylic acid accumulation in intact U937 cells. The class given is in vitro ADME, human. The note with it: in words. The protocol:
(§3) The assessment of the accumulation of ester-derived acid in intact human tumour cells can be measured using the following method:
(§4) U937, THP-1 or Hut 78 cells (4×10^4/ml) were incubated at 37° C. in culture medium containing 6 μM compound. Incubations were terminated by centrifugation (300 g; 5 min; 4° C.). Supernatants were added to 4 volumes of HPLC-grade acetonitrile. After decanting the supernatant, the residual cell pellet (1×10^6 cells) was extracted into 1 ml of acetonitrile. Samples were analyzed for the ester and acid metabolite at room temperature by LC/MS/MS (Sciex API3000). Chromatography was based on an AceCN (75*21 mm) column with a 5-95% (v/v) acetonitrile, 0.1% (v/v) formic acid mobile phase.

Series [6] relates to intact Hut78 cells. The series is described as follows: Carboxylic acid accumulation in intact Hut78 cells. The format is in vitro ADME, human. Conditions: in words. The protocol:
as §3, §4

The subject of series [7] is intact THP-1 cells. The series is described as follows: Carboxylic acid accumulation in intact THP-1 cells. The class given is in vitro ADME, human. The note with it: in words. Here is the method:
as §3, §4

Series [8] relates to TNF-α levels in LPS-stimulated human whole blood. The series is described as follows: LPS-stimulation of human whole blood (TNF-α levels). Conditions: Homo sapiens; IC50 range; TNF-α after LPS 100 ng/ml, 6 hours. The class given is cell-based. The protocol:
Whole blood is taken by venous puncture using heparinised vacutainers (Becton Dickinson) and diluted in an equal volume of RPMI1640 tissue culture media (Sigma). 100 μl is then plated in V-bottomed 96 well tissue culture treated plates. 2 Hours after the addition of the inhibitor in 100 μl of RPMI1640 media, the blood is stimulated with LPS (E. Coli strain 005:B5, Sigma) at a final concentration of 100 ng/ml and incubated at 37° C. in 5% CO2 for 6 hours. TNF-α levels are measured from cell-free supernatants by sandwich ELISA (R&D Systems #QTA00B).

Where [9] appears, read: read-out: THP-1 assay: Inhibition of TNFα release from LPS stimulated THP-1 (hCE-1 +ve) cells (IC50 nM).
[10] abbreviates: compound as drawn (ester for the ester compound), read-out: Enzyme assay: Inhibition of Hsp90 (IC50 nM).
The mark [11] stands for this setting: IC50 range, TNF-α after LPS 1 μg/ml, 6 hours, read-out: THP-1 Assay.
Where [12] appears, read: IC50 range, read-out: Enzyme Assay.

Each structure is given as a SMILES string. Like-named read-outs stand apart in the source and are kept apart here. Bounds are passed on as bounds.

Turning to `CC1CCN(C(=O)c2cc(C(C)C)c(O)cc2O)CC1` [CHR-7310, reference compound], the IC50 in series [1] (setting [9]) was found to be 476 nM; in series [2], 200 nM; in series [3], 145 nM; in series [4] (setting [10]), 8 nM. Moreover, the “Ratio of IC50's of Hut78 to U937 cells” value in series [3] is recorded as about 1.

`CC(C)C[C@H](NC1CCN(C(=O)c2cc(C(C)C)c(O)cc2O)CC1)C(=O)OC1CCCC1` [Example 1, cyclopentyl N-(1-{[2,4-dihydroxy-5-(propan-2-yl)phenyl]carbonyl}piperidin-4-yl)-L-leucinate]: the IC50 in series [1] (setting [11]) was under 100 nM; in series [8] it was 100 to 1000 nM; in series [4] (setting [12]) it was under 100 nM. The “Carboxylic acid accumulated by U937 cells” value in series [5] is listed as “significant amounts”. In series [6], the “Acid detected in Hut78 cells” value is listed as “negligible”. In addition, the “Carboxylic acid accumulated by THP-1 cells” value in series [7] is on record as “significant amounts”.

Turning to `CC(C)c1cc(C(=O)N2CCC(N[C@@H](COC(C)(C)C)C(=O)OC3CCCC3)CC2)c(O)cc1O` [Example 17, cyclopentyl O-tert-butyl-N-(1-{[2,4-dihydroxy-5-(propan-2-yl)phenyl]carbonyl}piperidin-4-yl)-L-serinate], the IC50 in series [1] (setting [11]) is under 100 nM; in series [1] (setting [9]), 45 nM; in series [2] it was 27 nM; in series [3] it was 760 nM; in series [8], 100 to 1000 nM; in series [4] (setting [12]) it was under 100 nM. Moreover, the IC50 turned out to be 7 nM in series [4] (acid (carboxylic acid of the ester drawn), read-out: Enzyme assay: Inhibition of Hsp90 (IC50 nM)) and 42 nM in series [4] (setting [10]). In addition, the “Potency in THP-1 cells compared with CHR-7310” value in series [1] (in words, relative to CHR-7310) is given as “significantly more potent”. Also, the “Potency in U937 cells compared with CHR-7310” value in series [2] (in words, relative to CHR-7310) was “significantly more potent”. Also, in series [3], the “Ratio of IC50's of Hut78 to U937 cells” value is recorded as 28. For the same molecule, in series [3] (in words, Hut78 cells do not contain hCE-1), the “Potency in Hut78 cells” value is listed as “significantly weaker”. The “IC50 in the Hsp90 binding assay compared with CHR-7310” value in series [4] (in words, relative to non-ester parent CHR-7310) is “weaker”.

These data come from US9321718B2 (CHROMA THERAPEUTICS LTD., priority 2010, dated 2016).
